We go through 2 molecules from patent US20260242738A1, “ALK5 INHIBITORS FOR EFFICIENT DERIVATION OF MESENCHYMAL STEM CELLS FROM EMBRYONIC STEM CELLS” (SCRIPPS HEALTH, priority 2022, published 2026).

“Also recorded” adds a separate entry of the source.

One experiment relates to HADC 100 ES-MSC. The experiment in a line: Pellet culture chondrogenesis, histology and immunohistochemistry. The class given is cell-based, human. The settings on record: 3 weeks; for cartilage-like tissue formation in high density pellets: HADC 100 ES-MSC, Safranin-O, collagen type I and II. The protocol: Monolayer-expanded ES-MSC (passage 2-5) were detached using Accutase® and 0.5×10^6 cells in 0.5 ml of chondrogenic medium were centrifuged at 900 rpm (~770 G) for 5 minutes to form high-density pellets. At least 5-6 pellets, for each ES-MSC condition, were cultured in serum-free chondrogenic medium consisting of Dulbecco's Modified Eagle Medium (Mediatech Inc., Manassas, VA), 1×ITS supplement (Sigma-Aldrich, St. Louis, MO), 100 nM Dexamethasone (Sigma), 1.25 mg/ml human serum albumin (Bayer, Leverkusen, Germany), 100 μM ascorbic acid 2-phosphate (Sigma), 1% penicillin/streptomycin/gentamycin (PSG, Gibco, Carlsbad, CA), and 10 ng/ml TGFβ3 (PeproTech, Rocky Hill, NJ). Pellets for ex vivo implantation were cultured for 3 days before implantation; pellets for histologic or gene expression analysis were maintained in culture for 3 weeks with media changes every 3 to 4 days.
Cell pellets and explants were fixed in Z-Fix (3.7% formaldehyde, Anatech Ltd., Battle Creek, MI), processed for embedding in paraffin, and cut into 4 μm-thick sections. Sections were stained with Safranin-O and Fast Green to visualize glycosaminoglycan distribution in the tissues. Alzarin Red S staining was used to detect the presence of mineralized matrix.
For assessment of collagen types I and II, sections were pretreated with pepsin (Digest-All 3, Thermo Fisher Scientific) for 9 minutes at 37° C. in a humid chamber before incubation at 4° C. for 12 to 16 hours with the following primary antibodies: rabbit anti-human collagen type I antibody (Ab 34710, Abcam, Cambridge, MA) 1 μg/ml; or mouse anti-human collagen type II (II-II6B3, Hybridoma Bank, University of Iowa) 2 μg/ml. For color development, the ImmPRESS secondary DAB (brown) or AP (red) kits (Vector Laboratories, Burlingame, CA) was used. Isotype controls were used to monitor non-specific staining.

The subject of another experiment is H9 ESC. The experiment in a line: Flow cytometry of MSC surface markers after ESC to MSC differentiation with ALK-5 inhibitor. The experiment is classed as cell-based, human. The settings on record: H9 ES-MSC. The method, then: An overview of the differentiation process is provided in FIG. 1, panel K. To create cell clusters or embryoid bodies of uniform size, ESCs were removed from CellStart culture using Accutase® for 2-5 minutes until single cells were observed. […] After 24 hours, the cell clusters were suspended at 2.5-3×10^5 cells per ml in ultra-low adherent 6 well plates (Corning) in StemPro-34 serum free medium (ThermoFisher) supplemented with 2 mM L-glutamine (ThermoFisher Scientific), 50 μg/ml Ascorbic acid (Stemcell Technologies, Vancouver, Canada) and 1.8 μl/ml ITS-G (100× Insulin-Transferrin-Selenium; ThermoFisher); termed as “complete SP-34 medium”.
The medium was changed every 2 days by removing cell clusters into 15 ml sterile tubes and permitted to gravity settle for 10 minutes at room temperature. Most of the media was removed using a pipette to leave approximately 300-500 μl of medium. Freshly made medium (with the appropriate ALK5 inhibitor or DMSO) was replaced at the same volumes and well number into new ultra-low adherent plates.
After treatment with the appropriate ALK5 inhibitor, the cell clusters were removed by gravity settling and suspended in complete SP-34 medium supplemented with bFGF 20 ng/ml (without any ALK-5 inhibitor or DMSO) and transferred onto fibronectin (FN) coated (10 μg/ml; Fibronectin from human plasma, Sigma-Aldrich, St. Louis, MO) T75 cm^2 flasks (passage zero (P0)). The emerging cells and remaining cell clusters were exposed to Accutase® for 5-10 minutes, gently triturated and counted. The cells were seeded at […] in T75 FN coated flask (P1) and medium changed every 3-4 days until 80-90% confluence. At this point, the cells were detached using Accutase® for continued culture, screened for surface marker phenotype characterization (flow cytometry), placed into 3D cultures to assess chondrogenic differentiation capacity, or preserved in liquid nitrogen.
Cells were detached using Accutase®, washed and suspended in FACS buffer at a concentration of 0.2×10^6 cells per 100 μl. A panel of CD molecules were used, each with the following fluorochromes: CD34-FITC, CD45-BV510, CD73-APC (BioLegend, San Diego, California) CD90-PE-Cy7, and CD105-BV650 (BD Biosciences, Franklin Lakes, New Jersey). Matching isotype control IgGs with the same fluorochrome conjugates were used for background gating. […] Data was acquired with the Novocyte flow cytometer (ACEA Biosciences Inc. San Diego, CA) and analyzed using FlowJo software (version 10, FlowJo, LLC, Ashland, OR) to determine percentage positive signal for each molecule relative to isotype background non-specific signal controls.
For orientation: Flow cytometry measures light scatter and fluorescence of single cells or particles in a stream.

For experiment [1], the system named is ESC cell lines (H9, AND-1, AND-2, and SHEF-1). The settings on record: monolayer cultures on Matrigel coated flasks, before sorting; cited from earlier work.
Experiment [2] concerns ES-MSC. As to the kind of experiment: ES-MSC on pneumatospun collagen type I scaffold, in vitro culture. The class given is cell-based, human. To be noted: 6 weeks in chondrogenic medium. An excerpt: (§1) ES-MSC derived from treatment with ALK-5 inhibitor SB525334, as described in Example 1, produced meniscus cartilage-like tissues when seeded upon blow spun collagen scaffolds in in vitro and in vivo.

Experiment [3] has as its system ES-MSC. As to the kind of experiment: ES-MSC seeded scaffolds implanted subcutaneously into a nude mouse. The experiment is classed as in vivo. To be noted: 1 week in vitro, then subcutaneous in nude mouse for 5 weeks.
Text: as §1

Take `NC(=O)c1ccc(-c2nc(-c3ccc4c(c3)OCO4)c(-c3ccccn3)[nH]2)cc1` [SB431542]: the “cartilage-like tissue formation in high density pellets” value in the experiment on HADC 100 ES-MSC is given as “consistently produced cartilage like-tissue”. Further, in the experiment on H9 ESC (SB431542 10 μM 10 days, N=5), the CD73 positive cells was 99±1%, the CD90 positive cells was 99±1% and the CD105 positive cells was 94±4%. Moreover, in the experiment on H9 ESC (co-expression analysis), the “triple positive for CD73, CD90 and CD105” value was determined as 92±9%. Further, the “CD73+CD90+CD34− cell population” value in experiment [1] is 42%.
For `Cc1cccc(-c2[nH]c(C(C)(C)C)nc2-c2ccc3nccnc3c2)n1` [SB525334], the “staining for GAGs, collagen type II and collagen type I in pellets compared to the other ALK5 inhibitors” value in the experiment on HADC 100 ES-MSC (HADC 100 ES-MSC pellets) was “most consistent staining for GAGs and collagen type II, and lower collagen type I signal; also recorded: most uniform GAGs and collagen type II deposition, and with reduced collagen type I”. In addition, the “cartilage-like tissue formation in high density pellets” value with HADC 100 ES-MSC is “also produced cartilage-like tissue”. Also, the “Safranin O staining (GAG deposition) on collagen scaffold” value in the experiment on ES-MSC [2] was “extensive GAG deposition”. The “meniscus cartilage-like tissue, Safranin O staining” value in the experiment with ES-MSC [3] is “strong Safranin O staining profile”.
